Experimental data taken from paper PMC3878827, “Synthesis and biological characterisation of ^18F-SIG343 and ^18F-SIG353, novel and high selectivity σ2 radiotracers, for tumour imaging properties” (EJNMMI Research, 2013).
Where “and” joins values, the source holds several entries; their conditions need not be identical. Identical values can stand only once.

Key:
[1] = system: A375 (human amelanotic melanoma) cells; assay: Cell uptake inhibition studies in A375 cells with competing σ ligands; type: cell-based; settings: 15 min
Procedure: A375 (human amelanotic melanoma) cells were purchased from American Type Culture Collection (Manassas, VA, USA) and cultured in RPMI-1640 medium (Sigma-Aldrich, St. Louis, MO, USA) supplemented with 10% foetal calf serum (Invitrogen, CA, USA) and 2 mM L-glutamine (Sigma). Cells were maintained in 175 cm^2 flasks in at 37°C in 5% CO2:95% atmosphere humidified incubator and grown to sub-confluent monolayers before being detached using trypsin for use in animal models.
Cells were prepared as described for uptake studies. Prior to the addition of the radiotracer, 400 μL of blocking drug (6.25 μmol/L in PBS) or PBS (for controls) was added to the wells. Freshly prepared radiotracer (0.37 MBq in 100 μL) was added, and the cells were incubated at 37°C for 15 min as the optimal time previously determined by the cell uptake studies. Uptake was terminated as described for uptake studies. The percentage of uptake in the treatment groups relative to the control group was determined.

[2] = Metabolite studies (radio-TLC and radio-HPLC) in A375 tumour-bearing mice; type: in vivo; settings: i.v., mean ± SD, n = 3
Procedure: The amount of intact ^18F-SIG343 and ^18F-SIG353 in the plasma, urine, tumour and brain cortex was quantified by thin layer chromatography (TLC) and radio-HPLC analysis. Mice were injected with 20 MBq of the radiotracer in 100 μL of saline. Mice were sacrificed 15, 60 and 120 min post injection of radiotracer. Whole organ samples of brain cortex and tumour samples (10 to 60 mg, minced) were added to unlabelled SIG343 or SIG353 (5 μL; 1 mg/mL), KF (5 μL; 1 mg/mL), MeCN (0.3 mL) and water (0.2 mL). Samples were exposed to an ultrasonic probe (Ultrasonic processor, Misonix Inc., Farmingdale, NY, USA) for 2 min before being centrifuged (5,000 rpm, 5 min). Plasma (50 μL) or urine (10 μL) samples were added to unlabelled SIG343 or SIG353, KF and 0.5 mL MeCN. Plasma samples were centrifuged (Heraeus Biofuge PrimoR, Thermo Fisher Scientific, Hudson, NH, USA; 5,000 rpm, 5 min), and the supernatant was removed and the radioactivity of the precipitated pellets was measured using a gamma counter to determine the extraction efficiency. If necessary, multiple extractions were performed to ensure maximum recovery of the radioactivity. An appropriate amount of the supernatant, based on the activity level (cpm), was collected (approximately 100 μL), diluted with water (up to 1.5 mL) for HPLC analysis or evaporated to dryness under vacuum for TLC analysis.
The TLC sample was reconstituted in methanol (25 to 50 μL) and mixed before being applied to the concentrating zone of the silica TLC plate. In a separate lane, the corresponding ^18F-labelled and ^19F-standard was also spotted. The TLC solvent systems of EtOAc/MeOH (70:30) were utilised for ^18F-SIG343 (rf 0.50) and ^18F-SIG353 (rf 0.55). The UV of the standard was identified using a UV lamp, while the movement and integration of the radioactive spots were visualised and measured using a phosphorimager (BAS 2500 Phosphorimager, Fujifilm, Tokyo, Japan) with Fujifilm Multigage 3.0 software. The intact radiotracer was identified as the radioactive spot containing the identical rf value to the corresponding ^19F-standard seen under the UV lamp. The integration of the active spot in relation to all the activity in the TLC lane gave the percentage of intact radiotracer.
Radio-HPLC analysis was performed following the method of Hilton et al.. A pre-column (Waters Oasis HLB, 25 μm, 20 × 3.9 mm) and a reversed phase HPLC column (Phenomenex Bondclone C18, 10 μm, 250 × 4.6 mm or Phenomenex Synergi Max-RP 80A C18, 4 μm, 250 × 4.6 mm) in series, with a switching valve between columns was utilised. The pre-column was washed with 1% acetonitrile in water for 3 min at 1.5 mL/min and then the solvent direction was switched to include the HPLC column. Both columns in series were then eluted over 10 min. The radioactivity peak corresponding to the authentic radiotracer was compared to the total activity registered in the radiochromatogram to give the fraction of unchanged radiotracer in the sample.

σ2 receptor = molecular target: T1, σ2 receptor (Mus musculus, UniProt Q8VD00); assay: In vivo blocking studies in A375 tumour-bearing mice; set-up: species or system Balb/C nude mice; settings: unlabelled SIG353-treated group, 1 mg/kg, 30 min p.i.
T1 construct: from tissue; host or cells: organs of Balb/C nude mice in vivo; tumour xenograft of A375 human amelanotic melanoma cells
T1 sequence (Q8VD00 1-176): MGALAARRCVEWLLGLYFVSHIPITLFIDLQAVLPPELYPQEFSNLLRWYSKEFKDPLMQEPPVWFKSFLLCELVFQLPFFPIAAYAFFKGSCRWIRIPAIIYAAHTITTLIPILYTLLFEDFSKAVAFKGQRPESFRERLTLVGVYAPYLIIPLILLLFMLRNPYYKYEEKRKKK
Procedure: Female Balb/C nude mice aged 5 to 6 weeks old were obtained from the Animal Resource Centre (Perth, Australia). The animals were kept at a constant temperature of 22°C ± 2°C on a 12/12 h light/dark cycle with lights on at 09:00 am. Food and water were freely available. After a week of acclimatisation, mice were injected subcutaneously in the left flank with 1 × 10^6 A375 human amelanotic melanoma cells, in 100 μL of Ca^2+/Mg^2+-free phosphate buffered saline. The procedure was performed without anaesthetic. For in vivo studies, A375 tumour-bearing mice were used 26 days after tumour inoculation.
Blocking studies were performed to investigate the specific uptake of the tracer via σ2 receptor mechanism. […] Control mice received saline only. Five minutes after injection of the blocking drug, ^18F-SIG343 or ^18F-SIG353 (1 MBq/100 μL of saline) was injected, and groups of mice (n = 5) were sacrificed 30 min post injection of the radiotracer. Organs were processed as described for the biodistribution study. Radioactivity concentrations in the organs in the treatment groups were compared to that measured in control mice.

Row | Unchanged form, Cortex ([2]; 15 min post injection) | Unchanged form, Plasma ([2]; 15 min post injection) | Unchanged form, Tumour ([2]; 15 min post injection) | Unchanged form, Urine ([2]; 15 min post injection) | Unchanged form, Cortex ([2]; 60 min post injection) | Unchanged form, Plasma ([2]; 60 min post injection) | Unchanged form, Tumour ([2]; 60 min post injection) | Unchanged form, Urine ([2]; 60 min post injection) | Unchanged form, Plasma ([2]; 120 min post injection) | Unchanged form, Urine ([2]; 120 min post injection) | Increase (↑) of radiotracer uptake in pancreas versus control (σ2 receptor) | Unchanged form, Tumour ([2]; 120 min post injection) | SMILES | Change of cell uptake of radiotracer versus control ([1]; competitor (+)-pentazocine 5 μM) | Change of cell uptake of radiotracer versus control ([1]; competitor haloperidol 5 μM) | Change of cell uptake of radiotracer versus control ([1]; competitor unlabelled SIG343 5 μM) | Change of cell uptake of radiotracer versus control ([1]; any of the competing σ ligands ((+)-pentazocine, haloperidol, unlabelled SIG353) 5 μM)
1 | 87 ± 3.2% | 49 ± 7.5% | 79 ± 4.6% | 13% and 13 ± 1.2% | 83 ± 0.8% | 23 ± 3.8% | 85 ± 3.1% | 15 ± 4.3% | 16 ± 2.8% | 11 ± 5.4% | – | – | COc1cc2c(cc1OC)CN(CCCCN1C(=O)c3ccc([18F])cc3C1=O)CC2 [^18F-SIG343] | no significant blocking effect | -72% | -69% | –
2 | 85% | 60 ± 3.0% | 81 ± 4.5% | 5% and 5 ± 1.3% | 87% | 27 ± 5.1% | 85 ± 2.4% | 4 ± 0.4% | 17 ± 2.9% | 5 ± 1.2% | 37% | 65% and 65 ± 8.9% | COc1cc2c(cc1OC)CN(CCCCCN1C(=O)c3ccc([18F])cc3C1=O)CC2 [^18F-SIG353] | – | – | – | not significantly reduced
